Experimental findings from patent US10220040B2, “Compounds, compositions and methods useful for cholesterol mobilization” (Cerenis Therapeutics Holding SA, priority 2010, dated 2019) are described below.

The test system of experiment [1] is P2Y13 knock-down Hepa 1-6 cells. Kind of experiment: HDL uptake on P2Y13 knock-down Hepa 1-6 cells. It is filed as cell-based, mouse. The note with it: in presence of Compound IIa (1 μM); doxycycline 72 hours; p<0.005. The method, then: FIG. 15: HDL uptake on P2Y13 knock-down Hepa 1-6 cells. Hepa 1-6 cells transduced with lentiviral particles coding the P2Y13 shRNA were induced by the addition of doxycycline for 72 hours. Cells were incubated for 10 min at 37° C. with 75 μg/ml ^3H cholesterol ether HDL and Compound IIa (1 μM). Data are expressed as the percentage of internalized radioactivity with respect to the control value (set as […]).*p<0.05, **p<0.005.
In order to relate the specific P2Y13 HDL uptake to the illustrative compounds of the invention, a knock-down P2Y13 in a mouse liver cell line (Hepa 1-6) was investigated. Lentiviral particles coding for the mouse P2Y13 shRNA and inducible by the addition of doxycycline onto the cells (pTRIPZ vector from Open Biosystem) were used. In presence of doxycycline, a decrease of the P2Y13 mRNA (FIG. 11) was observed. The uptake of HDL on this cell line was measured in the presence and the absence of Compound IIa and doxycycline (FIG. 12). A significant decrease of HDL uptake (8.5%) was observed when the cells were treated with doxycycline (group vehicle—p<0.05).
Transduced Hepa 1-6 cells were plated at 300,000 cells/well in 6×-well plates. […]
The lentiviral production in HEK 293T and authorization for lentiviral production was obtained by Vectalys. […] 24 hours after transduction, the number of cells was counted. […]

A further experiment has as its system C57Bl/6J mice. The experiment is described as follows: In vivo liver uptake of [3H]-labelled mouse HDL and LDL. The conditions noted are these: intravenous 10 nmole/kg. The method, then:
FIG. 16A-J: Increase of bile secretion following activation of P2Y13r pathway in mice. C57Bl/6J mice (n=10) were fasted for 2 h and then intravenously injected with Cangrelor® or Compound IIa (10 nmoles/kg). Four hours later the gallbladders were removed and analyzed for: Bile acids content (FIG. 16A); Bile cholesterol content (FIG. 16B). C57Bl/6J mice (n=10) were fasted for 2 h followed by single oral dose of P2Y13r agonist Compound IIa at 3, 30 or 300 μg/kg. Six hours later bile acids contents (FIG. 16C); bile cholesterol content (FIG. 16D), and bile acid content of liver (FIG. 16E) were evaluated using HPLC and enzymatic kits for gallbladers. Plasma samples were collected at time 0 and after 6 h of treatment, then analyzed for: total cholesterol (▴), unesterified cholesterol (●), esterified cholesterol (▪) and HDL cholesterol (▾) determined using either enzymatic kits or Lipoprint® for HDL cholesterol (FIG. 16F). […] Radioactivity present in the liver was determined 2 hours later for the HDL or 5 hours later for the LDL. Cholesterol content of feces from treated animals (100 μg/kg) was determined by Charge aerosol detection (FIG. 16J). *p<0.05, **p<0.01. […]

In the case of `CN(C)c1ncc(CN2CCC(c3cc(O)nc(N4CCOCC4)n3)CC2)cn1` [Compound IIa, 6-[1-(2-Dimethylaminopyrimidin-5-ylmethyl)-piperidin-4-yl]-2-morpholin-4-yl-pyrimidin-4-ol], the “decrease of HDL uptake when cells were treated with doxycycline (P2Y13 knock-down)” value in experiment [1] was 17.5%. Besides, the “liver uptake of labelled HDL as compared to LDL” value in the experiment on C57Bl/6J mice is “specific stimulation”.
